Patent US8883165B2, “Modified peptide vaccine derived from influenza M2” (The Chemo-Sero-Therapeutic Research Institute, priority 2009, dated 2014)
Several values for one entry are separate records, joined by “and”; a condition that tells them apart may be missing. Identical values can stand only once. Entries after “also recorded” stand apart in the source; their conditions may differ. Like-named read-outs stand apart in the source and are kept apart here.

Legend:
M2e [1] = test system: M2e; design: species or system BALB/c mice; details: mouse, in vivo
[2] = test system: Influenza virus (A/PR8/8/34 strain, H1N1); design: species or system BALB/c mice; details: mouse, in vivo
M2e [3] = test system: M2e; design: species or system BALB/c mice; details: mouse, in vivo; remark: listed apart in the source
[4] = test system: Influenza virus (A/PR8/8/34 strain, H1N1); assay type: in vivo, BALB/c mice; details: 21 days

SLLTEVETPIRNEWGCRCNDSSD (Influenza A virus) [M2e, peptide of 23 amino acid residues, positions No. 2 to No. 24 of M2 in influenza virus type A, no cysteine inserted, reference compound]
anti-M2e antibody titer just before challenge (M2e [1]): could not induce an anti-M2e antibody titer
Survival rate [2]: 3/8

SLLTEVETPTRSEWECRCSDSSD [swM2e, reference compound]
anti-M2e antibody titer immediately before challenge (M2e [3]): high anti-M2e antibody titer; also recorded: almost no increase in an antibody titer
Survival rate [4]: 4/10 and 8/10
